Reference: ChEMBL document CHEMBL2434921, “New synthetic aliphatic sulfonamido-quaternary ammonium salts as anticancer chemotherapeutic agents” (2013)
Active and inactive are the calls of the source. The rule behind the calls is not given here.

Legend:
NUGC-3 [1] = experiment: Growth of human NUGC3 cells at 0.3 uM after 48 hrs by SRB assay; details: NUGC-3, 48 h
NCI-H23 [2] = experiment: Growth inhibition of human NCI-H23 cells after 48 hrs by SRB assay; assay type: functional; details: NCI-H23, 48 h
[3] = target: Rho-related GTP-binding protein RhoB (Homo sapiens) (UniProt P62745); experiment: Transactivation of RhoB (unknown origin) transfected in human HeLa cells at 5 uM measured over 10 secs by dual luciferase reporter gene assay; assay type: cell-based
PC-3 [4] = experiment: Growth inhibition of human PC3 cells at 1 uM after 48 hrs by SRB assay; values are per cent of control; details: PC-3, 48 h
MDA-MB-231 [5] = experiment: Growth of human MDA-MB-231 cells at 3 uM after 48 hrs by SRB assay; values are per cent of control; details: MDA-MB-231, 48 h
PC-3 [6] = experiment: Growth inhibition of human PC3 cells at 0.1 uM after 48 hrs by SRB assay; values are per cent of control; details: PC-3, 48 h
NUGC-3 [7] = experiment: Growth of human NUGC3 cells at 1 uM after 48 hrs by SRB assay; details: NUGC-3, 48 h
NCI-H23 [8] = experiment: Growth of human NCI-H23 cells at 0.3 uM after 48 hrs by SRB assay; details: NCI-H23, 48 h
ACHN [9] = experiment: Growth inhibition of human ACHN cells at 1 uM after 48 hrs by SRB assay; values are per cent of control
NCI-H23 [10] = experiment: Growth inhibition of human NCI-H23 cells at 3 uM after 48 hrs by SRB assay; values are per cent of control; details: NCI-H23, 48 h
ACHN [11] = experiment: Growth of human ACHN cells at 10 uM after 48 hrs by SRB assay
NCI-H23 [12] = experiment: Growth inhibition of human NCI-H23 cells at 1 uM after 48 hrs by SRB assay; values are per cent of control; details: NCI-H23, 48 h
HCT-15 [13] = experiment: Growth inhibition of human HCT15 cells at 1 uM after 48 hrs by SRB assay; values are per cent of control; details: HCT-15, 48 h
HCT-15 [14] = experiment: Growth inhibition of human HCT15 cells after 48 hrs by SRB assay; assay type: functional; details: HCT-15, 48 h
ACHN [15] = experiment: Growth of human ACHN cells at 0.3 uM after 48 hrs by SRB assay
MDA-MB-231 [16] = experiment: Growth inhibition of human MDA-MB-231 cells at 0.3 uM after 48 hrs by SRB assay; values are per cent of control; details: MDA-MB-231, 48 h
MDA-MB-231 [17] = experiment: Growth of human MDA-MB-231 cells at 10 uM after 48 hrs by SRB assay; details: MDA-MB-231, 48 h
HCT-15 [18] = experiment: Growth inhibition of human HCT15 cells at 0.1 uM after 48 hrs by SRB assay; values are per cent of control; details: HCT-15, 48 h
HCT-15 [19] = experiment: Growth of human HCT15 cells at 3 uM after 48 hrs by SRB assay; details: HCT-15, 48 h
NUGC-3 [20] = experiment: Growth inhibition of human NUGC3 cells at 3 uM after 48 hrs by SRB assay; values are per cent of control; details: NUGC-3, 48 h
HCT-15 [21] = experiment: Growth of human HCT15 cells at 0.3 uM after 48 hrs by SRB assay; details: HCT-15, 48 h
MDA-MB-231 [22] = experiment: Growth inhibition of human MDA-MB-231 cells after 48 hrs by SRB assay; assay type: functional; details: MDA-MB-231, 48 h
NCI-H23 [23] = experiment: Growth of human NCI-H23 cells at 10 uM after 48 hrs by SRB assay; details: NCI-H23, 48 h
ACHN [24] = experiment: Growth inhibition of human ACHN cells at 3 uM after 48 hrs by SRB assay; values are per cent of control
NUGC-3 [25] = experiment: Growth inhibition of human NUGC3 cells after 48 hrs by SRB assay; assay type: functional; details: NUGC-3, 48 h
PC-3 [26] = experiment: Growth inhibition of human PC3 cells after 48 hrs by SRB assay; assay type: functional; details: PC-3, 48 h
ACHN [27] = experiment: Growth of human ACHN cells at 0.1 uM after 48 hrs by SRB assay
ACHN [28] = experiment: Growth inhibition of human ACHN cells after 48 hrs by SRB assay; assay type: functional
PC-3 [29] = experiment: Growth inhibition of human PC3 cells at 0.3 uM after 48 hrs by SRB assay; values are per cent of control; details: PC-3, 48 h
MDA-MB-231 [30] = experiment: Growth of human MDA-MB-231 cells at 1 uM after 48 hrs by SRB assay; details: MDA-MB-231, 48 h
HCT-15 [31] = experiment: Growth inhibition of human HCT15 cells at 10 uM after 48 hrs by SRB assay; values are per cent of control; details: HCT-15, 48 h
NUGC-3 [32] = experiment: Growth inhibition of human NUGC3 cells at 10 uM after 48 hrs by SRB assay; values are per cent of control; details: NUGC-3, 48 h
MDA-MB-231 [33] = experiment: Growth of human MDA-MB-231 cells at 0.1 uM after 48 hrs by SRB assay; details: MDA-MB-231, 48 h
PC-3 [34] = experiment: Growth inhibition of human PC3 cells at 3 uM after 48 hrs by SRB assay; values are per cent of control; details: PC-3, 48 h
NCI-H23 [35] = experiment: Growth inhibition of human NCI-H23 cells at 0.1 uM after 48 hrs by SRB assay; values are per cent of control; details: NCI-H23, 48 h
NUGC-3 [36] = experiment: Growth of human NUGC3 cells at 0.1 uM after 48 hrs by SRB assay; details: NUGC-3, 48 h
PC-3 [37] = experiment: Growth of human PC3 cells at 10 uM after 48 hrs by SRB assay; details: PC-3, 48 h

Rho-related GTP-binding protein RhoB (Homo sapiens), sequence (P62745 whole entry): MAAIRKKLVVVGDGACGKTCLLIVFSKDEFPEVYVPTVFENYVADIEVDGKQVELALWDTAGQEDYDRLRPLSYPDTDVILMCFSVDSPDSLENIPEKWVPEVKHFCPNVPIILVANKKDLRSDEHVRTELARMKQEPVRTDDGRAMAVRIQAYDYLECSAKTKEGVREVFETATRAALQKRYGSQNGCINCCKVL

SMILES	growth, % of control at 0.3 µM (NUGC-3 [1]) [%]	GI50 (NCI-H23 [2]) [nM]	Activity [3]	growth, % of control at 1 µM (PC-3 [4]) [%]	growth, % of control at 3 µM (MDA-MB-231 [5]) [%]	growth, % of control at 0.1 µM (PC-3 [6]) [%]	growth, % of control at 1 µM (NUGC-3 [7]) [%]	growth, % of control at 0.3 µM (NCI-H23 [8]) [%]	growth, % of control at 1 µM (ACHN [9]) [%]	growth, % of control at 3 µM (NCI-H23 [10]) [%]	growth, % of control at 10 µM (ACHN [11]) [%]	growth, % of control at 1 µM (NCI-H23 [12]) [%]	growth, % of control at 1 µM (HCT-15 [13]) [%]	GI50 (HCT-15 [14]) [nM]	growth, % of control at 0.3 µM (ACHN [15]) [%]	growth, % of control at 0.3 µM (MDA-MB-231 [16]) [%]	growth, % of control at 10 µM (MDA-MB-231 [17]) [%]	growth, % of control at 0.1 µM (HCT-15 [18]) [%]	growth, % of control at 3 µM (HCT-15 [19]) [%]	growth, % of control at 3 µM (NUGC-3 [20]) [%]	further results
CCCCCCCCCCCCCCCCS(=O)(=O)N(C)CC[N+](C)(CC)CC	88.1	620	Active	50.7	35.7	100	30.2	90.5	72.7	22.5	5	51.3	76.2	1490	89.5	96.2	15.6	98.5	42.7	9.2	growth, % of control at 0.3 µM (HCT-15 [21]): 100%; GI50 (MDA-MB-231 [22]): 1120 nM; growth, % of control at 10 µM (NCI-H23 [23]): 0.4%; growth, % of control at 3 µM (ACHN [24]): 48.7%; GI50 (NUGC-3 [25]): 390 nM; GI50 (PC-3 [26]): 560 nM; growth, % of control at 0.1 µM (ACHN [27]): 90.4%; GI50 (ACHN [28]): 1290 nM; growth, % of control at 0.3 µM (PC-3 [29]): 92.8%; growth, % of control at 1 µM (MDA-MB-231 [30]): 68.4%; growth, % of control at 10 µM (HCT-15 [31]): 21.1%; growth, % of control at 10 µM (NUGC-3 [32]): 1.2%; growth, % of control at 0.1 µM (MDA-MB-231 [33]): 98.5%; growth, % of control at 3 µM (PC-3 [34]): 8.6%; growth, % of control at 0.1 µM (NCI-H23 [35]): 90.7%; growth, % of control at 0.1 µM (NUGC-3 [36]): 93.6%; growth, % of control at 10 µM (PC-3 [37]): -21.6%
C=CC[N+](C)(C)CCN(C)S(=O)(=O)CCCCCCCCCCCCCCCC	105	890	Active	61.8	39.4	99.9	65.5	96.2	112	30.9	38.6	69.8	97.2	4730	130	104	18.4	100	76.5	20.9	growth, % of control at 0.3 µM (HCT-15 [21]): 101%; GI50 (MDA-MB-231 [22]): 1350 nM; growth, % of control at 10 µM (NCI-H23 [23]): 2.5%; growth, % of control at 3 µM (ACHN [24]): 69.3%; GI50 (NUGC-3 [25]): 760 nM; GI50 (PC-3 [26]): 620 nM; growth, % of control at 0.1 µM (ACHN [27]): 135%; GI50 (ACHN [28]): 3480 nM; growth, % of control at 0.3 µM (PC-3 [29]): 95.9%; growth, % of control at 1 µM (MDA-MB-231 [30]): 86.5%; growth, % of control at 10 µM (HCT-15 [31]): 48.7%; growth, % of control at 10 µM (NUGC-3 [32]): 9.4%; growth, % of control at 0.1 µM (MDA-MB-231 [33]): 108%; growth, % of control at 3 µM (PC-3 [34]): 10.1%; growth, % of control at 0.1 µM (NCI-H23 [35]): 101%; growth, % of control at 0.1 µM (NUGC-3 [36]): 108%; growth, % of control at 10 µM (PC-3 [37]): -4.8%
